Data on nine compounds can be found in ChEMBL document CHEMBL1139987 (Bioorg Med Chem Lett, 2007).

The structures appear in SMILES notation. pIC50: −log10 of the molar value.

The target of assay [1] is Insulin-like growth factor 1 receptor (Homo sapiens, UniProt P08069). Put plainly: Inhibition of IGF1R.
For the next assay, the system named is MCF7. Put plainly: Inhibition of IGF1 mediated cell growth in MCF7 cells. As to conditions: Homo sapiens.
In assay [2] the target is T1, Polyunsaturated fatty acid lipoxygenase ALOX15 (Homo sapiens, UniProt P16050).
T1 sequence (P16050 whole entry): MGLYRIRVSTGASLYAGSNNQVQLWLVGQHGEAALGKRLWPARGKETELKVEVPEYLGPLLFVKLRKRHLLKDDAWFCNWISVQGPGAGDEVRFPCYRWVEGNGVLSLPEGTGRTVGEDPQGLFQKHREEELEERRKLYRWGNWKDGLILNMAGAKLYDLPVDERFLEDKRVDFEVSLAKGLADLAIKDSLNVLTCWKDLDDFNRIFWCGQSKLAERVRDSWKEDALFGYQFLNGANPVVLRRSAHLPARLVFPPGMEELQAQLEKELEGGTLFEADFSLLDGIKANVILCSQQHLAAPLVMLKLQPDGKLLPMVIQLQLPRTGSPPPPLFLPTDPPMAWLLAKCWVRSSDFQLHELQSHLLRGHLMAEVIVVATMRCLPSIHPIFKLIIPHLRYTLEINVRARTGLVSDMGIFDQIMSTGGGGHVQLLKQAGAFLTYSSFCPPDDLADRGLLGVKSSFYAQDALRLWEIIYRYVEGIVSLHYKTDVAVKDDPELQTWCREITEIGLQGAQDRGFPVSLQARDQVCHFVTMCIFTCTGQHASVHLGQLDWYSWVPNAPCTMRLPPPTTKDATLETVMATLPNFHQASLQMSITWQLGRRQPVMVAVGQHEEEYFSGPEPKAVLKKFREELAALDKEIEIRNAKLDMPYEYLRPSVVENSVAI

As a reminder, the pIC50 is the negative decadic logarithm of the IC50, by convention in mol/L. A higher pIC50 goes with a small IC50.

Chain of Insulin-like growth factor 1 receptor (P08069 31-736 limits assumed): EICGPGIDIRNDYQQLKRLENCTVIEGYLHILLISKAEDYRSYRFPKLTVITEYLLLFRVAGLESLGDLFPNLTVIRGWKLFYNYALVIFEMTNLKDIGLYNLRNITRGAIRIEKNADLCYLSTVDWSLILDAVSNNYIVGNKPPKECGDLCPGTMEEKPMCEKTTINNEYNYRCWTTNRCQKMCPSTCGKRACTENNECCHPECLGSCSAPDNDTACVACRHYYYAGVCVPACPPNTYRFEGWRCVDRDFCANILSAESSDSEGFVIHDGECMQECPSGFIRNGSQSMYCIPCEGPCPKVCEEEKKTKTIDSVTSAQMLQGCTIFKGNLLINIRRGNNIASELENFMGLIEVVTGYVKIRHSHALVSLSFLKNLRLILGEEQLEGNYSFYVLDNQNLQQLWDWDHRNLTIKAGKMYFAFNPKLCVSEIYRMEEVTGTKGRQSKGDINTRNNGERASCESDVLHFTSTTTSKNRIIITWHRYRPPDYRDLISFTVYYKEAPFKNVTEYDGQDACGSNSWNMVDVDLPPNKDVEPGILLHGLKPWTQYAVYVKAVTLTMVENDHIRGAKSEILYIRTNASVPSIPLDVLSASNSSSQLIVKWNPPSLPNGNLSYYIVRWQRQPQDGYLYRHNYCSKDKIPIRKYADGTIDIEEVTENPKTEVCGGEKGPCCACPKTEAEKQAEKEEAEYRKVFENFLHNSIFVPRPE
Chain of Insulin-like growth factor 1 receptor (P08069 741-1367 limits assumed): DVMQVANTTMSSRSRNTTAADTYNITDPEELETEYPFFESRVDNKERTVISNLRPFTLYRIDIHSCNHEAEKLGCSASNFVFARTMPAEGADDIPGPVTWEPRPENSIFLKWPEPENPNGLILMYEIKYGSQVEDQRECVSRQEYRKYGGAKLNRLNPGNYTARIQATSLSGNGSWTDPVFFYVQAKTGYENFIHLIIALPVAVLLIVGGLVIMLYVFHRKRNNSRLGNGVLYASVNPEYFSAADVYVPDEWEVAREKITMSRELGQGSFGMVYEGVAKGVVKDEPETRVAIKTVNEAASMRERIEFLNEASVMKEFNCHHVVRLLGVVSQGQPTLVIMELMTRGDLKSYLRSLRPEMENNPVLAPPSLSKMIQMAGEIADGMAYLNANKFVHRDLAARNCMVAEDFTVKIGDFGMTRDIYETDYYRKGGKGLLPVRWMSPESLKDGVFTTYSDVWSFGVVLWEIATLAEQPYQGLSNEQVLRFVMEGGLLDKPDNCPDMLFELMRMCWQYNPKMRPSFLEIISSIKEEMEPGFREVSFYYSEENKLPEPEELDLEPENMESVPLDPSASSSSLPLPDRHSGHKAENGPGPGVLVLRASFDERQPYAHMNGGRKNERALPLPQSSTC

Regarding `Oc1ccc(CCCCc2ccc(Cl)c(Cl)c2)cc1O`, the negative-log IC50 (pIC50) in assay [1] was 6.00; in the assay with MCF7, 4.67.
In turn, `COc1ccc(CCCCc2ccc(O)c(O)c2)cc1` showed a pIC50 in the assay on MCF7 of 4.80.
Consider `Cc1ccc(CCCCc2ccc(O)c(O)c2)cc1`, for which the results for the pIC50 (in assay [1]; in the assay with MCF7) were 6.10 and 4.82, respectively.
Regarding `Oc1ccc(CCCCc2ccc(O)c(O)c2)cc1O`, the pIC50 in assay [2] was 5.41; in assay [1] it was 6.22; in the assay with MCF7, 4.60.
As to `Oc1cc2c(cc1O)C(c1ccccc1)CCC2` (stereo not drawn), the negative logarithm of the IC50 (pIC50) is 6.00 in assay [1] and 4.91 with MCF7.
Turning to `Oc1ccc(CCCCc2ccc(O)c(O)c2)cc1`, the figures for the pIC50 (in assay [2]; in assay [1]; in the assay on MCF7) were 5.03, 6.00 and 4.44, respectively.
As to `Oc1ccc(CCCCc2ccc(Cl)cc2)cc1O`, the pIC50 in assay [1] was 6.10; in the assay on MCF7, 4.87.
Regarding `Oc1ccc(CCCCc2ccccc2)cc1O`, the pIC50 was 5.14 in assay [2] and 4.95 in the assay with MCF7.
For the compound `CC(Cc1ccc(O)c(O)c1)C(C)Cc1ccc(O)c(O)c1` (stereo not drawn) [NORDIHYDROGUAIARETIC ACID], in the assay on MCF7, the pIC50 was 4.61.
